Source: the supplement of paper PMC4862054

Assays:
Assay in all cases: normalised viability (% of control), CellTiter-Blue; higher = more viable cells (about 100 = DMSO control)
Details in all cases: incubation time: 72 h
BT-474 [1] = tested on: BT-474
Description: (§1)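 DSRT, CellTiter-Blue viability, 72 h incubation. Signal is normalised to DMSO and benzethonium chloride controls. Value is the normalised response at dose 3.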

BT-549 [2] = tested on: BT-549
Description: as §1

CAL-120 = tested on: CAL-120
Description: as §1

CAL-148 [3] = tested on: CAL-148
Description: as §1

CAL-51 = tested on: CAL-51
Description: as §1

CAL-85-1 = tested on: CAL-85-1
Description: as §1

DU-4475 [4] = tested on: DU-4475
Description: as §1

HCC1143 [5] = tested on: HCC1143
Description: as §1

HCC1599 = tested on: HCC1599
Description: as §1

HCC1937 [6] = tested on: HCC1937
Description: as §1

HDQ-P1 [7] = tested on: HDQ-P1
Description: as §1

Hs578T = tested on: Hs578T
Description: as §1

MDA-MB-231 [8] = tested on: MDA-MB-231
Description: as §1

MDA-MB-436 = tested on: MDA-MB-436
Description: as §1

MDA-MB-453 [9] = tested on: MDA-MB-453
Description: as §1

MDA-MB-468 = tested on: MDA-MB-468
Description: as §1

MFM-223 [10] = tested on: MFM-223
Description: as §1

SK-BR-3 [11] = tested on: SK-BR-3
Description: as §1

BT-474 [12] = tested on: BT-474; remark: listed apart in the source
How it was run: (§2)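 Vehicle (100) and a positive kill control (0) anchored the normalisation of each plate, and Z'-factor was used for quality control. Breast cancer cell lines in 20 µl suspension were incubated 72 h over compound in 5 µl medium in 384-well plates, followed by CellTiter-Blue at 560/590 nm. The value is normalised viability at a single listed concentration of the series.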

BT-549 [13] = tested on: BT-549; remark: listed apart in the source
How it was run: as §2

CAL-148 [14] = tested on: CAL-148; remark: listed apart in the source
How it was run: as §2

DU-4475 [15] = tested on: DU-4475; remark: listed apart in the source
How it was run: as §2

HCC1143 [16] = tested on: HCC1143; remark: listed apart in the source
How it was run: as §2

HCC1937 [17] = tested on: HCC1937; remark: listed apart in the source
How it was run: as §2

HDQ-P1 [18] = tested on: HDQ-P1; remark: listed apart in the source
How it was run: as §2

MDA-MB-231 [19] = tested on: MDA-MB-231; remark: listed apart in the source
How it was run: as §2

MDA-MB-453 [20] = tested on: MDA-MB-453; remark: listed apart in the source
How it was run: as §2

MFM-223 [21] = tested on: MFM-223; remark: listed apart in the source
How it was run: as §2

SK-BR-3 [22] = tested on: SK-BR-3; remark: listed apart in the source
How it was run: as §2

CC(=O)c1c(C)c2cnc(Nc3ccc(N4CCNCC4)cn3)nc2n(C2CCCC2)c1=O
Details	normalised viability [%]
BT-474 [1], 100 nM	95.7
BT-474 [12], 10 nM	108
BT-474 [12], 1000 nM	105
BT-474 [12], 10000 nM	67
BT-549 [2], 100 nM	108
BT-549 [13], 10 nM	101
BT-549 [13], 1000 nM	109
BT-549 [13], 10000 nM	85.2
CAL-51, 10 nM	107
CAL-85-1, 10 nM	102
CAL-120, 100 nM	73.8
CAL-148 [3], 10 nM	91.3
CAL-148 [14], 3 nM	91
CAL-148 [14], 30 nM	89.4
CAL-148 [14], 100 nM	93.6
DU-4475 [4], 10 nM	107
DU-4475 [15], 3 nM	104
DU-4475 [15], 30 nM	99.7
DU-4475 [15], 100 nM	105
HCC1143 [5], 100 nM	82.3
HCC1143 [16], 10 nM	74.2
HCC1143 [16], 1000 nM	73.5
HCC1143 [16], 10000 nM	61.8
HCC1599, 100 nM	88.2
HCC1937 [6], 100 nM	97.2
HCC1937 [17], 10 nM	38.9
HCC1937 [17], 1000 nM	102
HCC1937 [17], 10000 nM	67.9
HDQ-P1 [7], 10 nM	108
HDQ-P1 [18], 3 nM	95.2
HDQ-P1 [18], 30 nM	99.9
HDQ-P1 [18], 100 nM	99.5
Hs578T, 100 nM	66.3
MDA-MB-231 [8], 100 nM	88.5
MDA-MB-231 [19], 10 nM	97.6
MDA-MB-231 [19], 1000 nM	57.7
MDA-MB-231 [19], 10000 nM	41.2
MDA-MB-436, 100 nM	111
MDA-MB-453 [9], 10 nM	104
MDA-MB-453 [20], 3 nM	112
MDA-MB-453 [20], 30 nM	104
MDA-MB-453 [20], 100 nM	79.1
MDA-MB-468, 100 nM	105
MFM-223 [10], 100 nM	88.1
MFM-223 [21], 10 nM	77.5
MFM-223 [21], 1000 nM	79.3
MFM-223 [21], 10000 nM	74
SK-BR-3 [11], 100 nM	78
SK-BR-3 [22], 10 nM	100
SK-BR-3 [22], 1000 nM	110
SK-BR-3 [22], 10000 nM	63.5

Nc1nc2[nH]cnc2c(=S)[nH]1 [Thioguanine]
Details	normalised viability [%]
BT-474 [1], 100 nM	109
BT-474 [12], 10 nM	112
BT-474 [12], 1000 nM	113
BT-474 [12], 10000 nM	102
BT-549 [2], 100 nM	94.6
BT-549 [13], 10 nM	94
BT-549 [13], 1000 nM	106
BT-549 [13], 10000 nM	49
CAL-51, 10 nM	108
CAL-85-1, 10 nM	102
CAL-120, 100 nM	96.8
CAL-148 [3], 10 nM	109
CAL-148 [14], 3 nM	105
CAL-148 [14], 30 nM	116
CAL-148 [14], 100 nM	102
DU-4475 [4], 10 nM	105
DU-4475 [15], 3 nM	120
DU-4475 [15], 30 nM	112
DU-4475 [15], 100 nM	116
HCC1143 [5], 100 nM	82.7
HCC1143 [16], 10 nM	92.6
HCC1143 [16], 1000 nM	103
HCC1143 [16], 10000 nM	82.9
HCC1599, 100 nM	103
HCC1937 [6], 100 nM	98.5
HCC1937 [17], 10 nM	76.3
HCC1937 [17], 1000 nM	86.1
HCC1937 [17], 10000 nM	40.4
HDQ-P1 [7], 10 nM	103
HDQ-P1 [18], 3 nM	117
HDQ-P1 [18], 30 nM	127
HDQ-P1 [18], 100 nM	101
Hs578T, 100 nM	89.9
MDA-MB-231 [8], 100 nM	89.3
MDA-MB-231 [19], 10 nM	92.7
MDA-MB-231 [19], 1000 nM	58.4
MDA-MB-231 [19], 10000 nM	56
MDA-MB-436, 100 nM	103
MDA-MB-453 [9], 10 nM	109
MDA-MB-453 [20], 3 nM	132
MDA-MB-453 [20], 30 nM	102
MDA-MB-453 [20], 100 nM	98.6
MDA-MB-468, 100 nM	107
MFM-223 [10], 100 nM	95.2
MFM-223 [21], 10 nM	89.4
MFM-223 [21], 1000 nM	88.6
MFM-223 [21], 10000 nM	82.2
SK-BR-3 [11], 100 nM	87.5
SK-BR-3 [22], 10 nM	99.7
SK-BR-3 [22], 1000 nM	103
SK-BR-3 [22], 10000 nM	49.6

CC[C@@H]1C(=O)OC[C@@H]1Cc1cncn1C [Pilocarpine]
Details	normalised viability [%]
BT-474 [1], 400 nM	116
BT-474 [12], 40 nM	108
BT-474 [12], 4000 nM	158
BT-474 [12], 40000 nM	116
BT-549 [2], 400 nM	111
BT-549 [13], 40 nM	95.5
BT-549 [13], 4000 nM	114
BT-549 [13], 40000 nM	100
CAL-51, 40 nM	102
CAL-85-1, 40 nM	98
CAL-120, 400 nM	107
CAL-148 [3], 40 nM	97.4
CAL-148 [14], 12 nM	95.5
CAL-148 [14], 120 nM	101
CAL-148 [14], 400 nM	104
DU-4475 [4], 40 nM	108
DU-4475 [15], 12 nM	103
DU-4475 [15], 120 nM	92.1
DU-4475 [15], 400 nM	107
HCC1143 [5], 400 nM	90.1
HCC1143 [16], 40 nM	87.5
HCC1143 [16], 4000 nM	90.3
HCC1143 [16], 40000 nM	88.4
HCC1599, 400 nM	99.6
HCC1937 [6], 400 nM	95.1
HCC1937 [17], 40 nM	109
HCC1937 [17], 4000 nM	107
HCC1937 [17], 40000 nM	97.4
HDQ-P1 [7], 40 nM	108
HDQ-P1 [18], 12 nM	123
HDQ-P1 [18], 120 nM	137
HDQ-P1 [18], 400 nM	118
Hs578T, 400 nM	110
MDA-MB-231 [8], 400 nM	93.3
MDA-MB-231 [19], 40 nM	94.9
MDA-MB-231 [19], 4000 nM	116
MDA-MB-231 [19], 40000 nM	118
MDA-MB-436, 400 nM	105
MDA-MB-453 [9], 40 nM	102
MDA-MB-453 [20], 12 nM	118
MDA-MB-453 [20], 120 nM	93.5
MDA-MB-453 [20], 400 nM	100
MDA-MB-468, 400 nM	99.6
MFM-223 [10], 400 nM	92.8
MFM-223 [21], 40 nM	96.4
MFM-223 [21], 4000 nM	90.7
MFM-223 [21], 40000 nM	63.7
SK-BR-3 [11], 400 nM	103
SK-BR-3 [22], 40 nM	106
SK-BR-3 [22], 4000 nM	115
SK-BR-3 [22], 40000 nM	136

O=NN(CCCl)C(=O)NCCCl [Carmustine]
Details	normalised viability [%]
BT-474 [1], 100 nM	111
BT-474 [12], 10 nM	124
BT-474 [12], 1000 nM	98.8
BT-474 [12], 10000 nM	125
BT-549 [2], 100 nM	111
BT-549 [13], 10 nM	88.2
BT-549 [13], 1000 nM	89.9
BT-549 [13], 10000 nM	103
CAL-51, 10 nM	105
CAL-85-1, 10 nM	95
CAL-120, 100 nM	91.3
CAL-148 [3], 10 nM	91.5
CAL-148 [14], 3 nM	94.5
CAL-148 [14], 30 nM	96.7
CAL-148 [14], 100 nM	97.5
DU-4475 [4], 10 nM	108
DU-4475 [15], 3 nM	85.3
DU-4475 [15], 30 nM	83.5
DU-4475 [15], 100 nM	93
HCC1143 [5], 100 nM	91.8
HCC1143 [16], 10 nM	87.2
HCC1143 [16], 1000 nM	85.4
HCC1143 [16], 10000 nM	86.6
HCC1599, 100 nM	114
HCC1937 [6], 100 nM	87.8
HCC1937 [17], 10 nM	95
HCC1937 [17], 1000 nM	93
HCC1937 [17], 10000 nM	71.5
HDQ-P1 [7], 10 nM	105
HDQ-P1 [18], 3 nM	120
HDQ-P1 [18], 30 nM	128
HDQ-P1 [18], 100 nM	108
Hs578T, 100 nM	96.3
MDA-MB-231 [8], 100 nM	90.8
MDA-MB-231 [19], 10 nM	103
MDA-MB-231 [19], 1000 nM	99.1
MDA-MB-231 [19], 10000 nM	117
MDA-MB-436, 100 nM	119
MDA-MB-453 [9], 10 nM	109
MDA-MB-453 [20], 3 nM	109
MDA-MB-453 [20], 30 nM	105
MDA-MB-453 [20], 100 nM	110
MDA-MB-468, 100 nM	123
MFM-223 [10], 100 nM	83.8
MFM-223 [21], 10 nM	93.1
MFM-223 [21], 1000 nM	94.6
MFM-223 [21], 10000 nM	103
SK-BR-3 [11], 100 nM	102
SK-BR-3 [22], 10 nM	100
SK-BR-3 [22], 1000 nM	123
SK-BR-3 [22], 10000 nM	96.9
